Legend:
KRAS gene = assay: Semi-quantitative analysis of gene expression by RT-PCR; type: cell-based, human; conditions: LS180 (KRAS gene codon 12 mutation), 50 nM, 48 hours, FIG. 11B
Description: HT29 and LS180 were each cultured in a 12-well plate. On the following day, the cells were treated with 50 nM KR12 or KR13, and were then cultured for 48 hours. Thereafter, the cultured cells were harvested, and RNA was then extracted. For the extraction, RT-PCR was carried out using RNeasy mini kit (Qiagen, CA). Subsequently, using the extracted RNA as a template, cDNA for reverse transcription was prepared by employing Super Script VILO cDNA Synthesis Kit (Invitrogen, CA). Using the prepared cDNA as a template, PCR was carried out. After a reaction had been carried out at 94° C. for 5 minutes, a reaction cycle of 94° C.-30 seconds, 55° C.-30 seconds, and 72° C.-30 seconds was repeated 20 times. Finally, an elongation reaction was carried out at 72° C. for 7 minutes. The PCR product was subjected to electrophoresis on 2% agarose gel. The amount of the PCR product was calculated using a photograph of a band stained with ethidium bromide.
The below-mentioned primer set was used in PCR.
A forward primer (sense) and a reverse primer (antisense), which amplify both mutant and wild-type KRAS genes, and a forward primer (sense) and a reverse primer (antisense) for an RPS18 (ribosomal protein S18) gene used as an internal standard are shown below.

SW1463 = assay: Cytotoxicity test, WST-8 (cell counting kit-8), 48 hours; type: cell-based; conditions: SW1463, KRAS G12C Homo, read-out: KR12 IC50
Description: (§1) Using colon cancer and pancreatic cancer cell lines, the cells were seeded in each well of a 96-well microplate, resulting in a cell density of 3000 to 5000 cells/well, and they were then cultured overnight. On the following day, the cells of each type were treated with KR12 recognizing a codon 12 mutation in concentrations of 1 nM, 10 nM, 30 nM, 100 nM, 300 nM, and 1 μM for 48 hours. Thereafter, a WST-8 reagent was added to each well, using cell counting kit-8, and the obtained mixture was then reacted for 2 hours. After that, the number of cells was counted at a wavelength of 450 nm according to a colorimetric analysis method using a microplate reader. The method of counting the number of cells comprises: 1) obtaining the mean value of the medium alone, 2) subtracting the mean value of the medium from each well, 3) obtaining the mean value of DMSO, 4) dividing the medium-subtracted value by the mean value of DMSO and then multiplying by 100, 5) obtaining the mean value of each treatment group and a standard deviation, and then preparing a graph. The calculation formula of IC50 is the following: IC50=10 (LOG (A/B)×(50−C)/(D−C)+LOG (B)), wherein A: a higher concentration of two concentrations sandwiching 50%, B: a lower concentration of two concentrations sandwiching 50%, C: inhibitory percentage at B, and D: inhibitory percentage at A.
(§2) The cells used in the aforementioned experiment are human cancer cell lines SW480, SW620, SNU-C2B, LS180, SW1463, DLD-1, HT29, and Caco-2 (purchased from European Collection of Cell Cultures (ECACC)).

SNU-C2B = assay: as above; type: cell-based; conditions: Homo sapiens, KRAS G12D Hetero, read-out: KR12 IC50
Description: as §1, §2

SW480 = assay: as above; type: cell-based; conditions: SW480, KRAS G12V Homo, read-out: KR12 IC50
Description: as §1, §2

Caco-2 = assay: as above; type: cell-based; conditions: Homo sapiens, Caco-2, KRAS wild type, read-out: KR12 IC50
Description: as §1, §2

SW620 = assay: as above; type: cell-based; conditions: SW-620, SW620, KRAS G12V Homo, read-out: KR12 IC50
Description: as §1, §2

HT-29 = assay: as above; type: cell-based; conditions: Homo sapiens, HT-29, KRAS wild type, read-out: KR12 IC50
Description: as §1, §2

DLD-1 = assay: as above; type: cell-based; conditions: Homo sapiens, DLD-1, KRAS G13D Hetero, read-out: KR12 IC50
Description: as §1, §2

[1] = Mass spectrometry of mouse urine and mouse bile for KR12 and decomposed product; type: in vivo
Description: The FITC-labeled KR12 (10 nmol) was administered into the vein of nude mice, into which SW480 cells had been transplanted, and thereafter, their fluorescent image was observed over time. […] Thereafter, twenty-four hours after the administration, the mice were dissected, and incorporation of FITC into various organs was observed. […] Furthermore, localization of KR12 in the cells of tumor, liver, and kidney was observed under a fluorescence microscope. […] The presence of absence of HR12 and a decomposed product thereof in mouse urine and mouse bile was examined by mass spectrometry. […] In the case of tumor cells, lipids are required for the synthesis of a cell membrane or the like, together with cell division, and thus, in general, incorporation of lipids is increased. In addition, excretion via the lymphatics is undeveloped. […] Such accumulation of KR12 in the liver and the kidney is observed even in normal cells. However, since KR12 cannot retain in the cells, it is discharged into bile and/or urine, and is then excreted from these organs. That is, KR12 has excellent effects that it is promptly discharged from normal cells and retains in cancer cells for a long period of time.

LS180 = assay: Cell growth of KR12-treated LS180 cells (FIG. 12B); type: cell-based, human; conditions: LS180, FIG. 12B
LS180 (KRAS-MUThetero) = assay: Suppression of tumor growth in nude mice, LS180 transplanted; type: in vivo; conditions: nude mice with LS180 cells; 3.4 mmol KR12 via the caudal vein; FIG. 14B
Description: The below-mentioned 3 types of PBS solutions containing each type of cells were subcutaneously transplanted into the femurs of nude mice (i.e., HT29 into 7 mice, LS180 into 7 mice, and SW480 into 6 mice), and thereafter, at a time point in which a tumor adhered to the living body of each mouse and the tumor volume became approximately 100 mm^3, a drug was prepared with a composition of 3.4 mmol KR12 (1.36 mM KR12 dissolved in 2.5 μL of DMSO and 197.5 μL of PBS), or of a DMSO/PBS control (2.5 μL of DMSO and 197.5 μL of PBS). The prepared drug was subjected to sonication for 10 minutes, and 200 μL of the drug was administered to each mouse via the caudal vein thereof. The body weight and the tumor size were measured once three days, and the size of the tumor was measured by the method of 0.52×L×W×D(1/6×π×L×W×D).
LS180 (KRAS-MUThetero): (transplanted in an amount of 3×10^6 cells/100 μl PBS into the subcutis of each mouse; a cell line having a heterozygous KRAS gene codon 12 mutation G12D)

For `CC(=O)Nc1cn(C)c(C(=O)Nc2cc(C(=O)NCCC(=O)Nc3cn(C)c(C(=O)Nc4cn(C)c(C(=O)Nc5cc(C(=O)Nc6cn(C)c(C(=O)NCCCC(=O)Nc7cc(C(=O)Nc8cn(C)c(C(=O)NCCC(=O)Nc9cc(C(=O)Nc%10cc(C(=O)Nc%11ccc%12[nH]c(C(=O)N%13CC(CCl)c%14c%13cc(O)c%13ccccc%14%13)cc%12c%11)n(C)c%10)n(C)c9)n8)n(C)c7)n6)n(C)c5)n4)n3)n(C)c2)n1` (centres unmarked) [KR12], the “expression of the KRAS gene” value (KRAS gene) was “significantly suppressed”, the IC50 (SW1463) was 178 nM and the IC50 (SNU-C2B) was 57 nM. The IC50 (SW480) was 31 nM, the IC50 (Caco-2) was 105 nM and the IC50 (SW620) was 17 nM. For the same compound, the IC50 (HT-29) was 102 nM, the IC50 (DLD-1) was 153 nM and the “metabolic degradation of excreted compound” value [1] was “discharged in a state in which it was not subjected to metabolic degradation”. For the same compound, the cell growth (LS180) was “suppressed” and the tumor growth (LS180 (KRAS-MUThetero)) was “significantly suppressed”.

Source: US11185593B2, “Alkylating agent for alkylating target with driver oncogene mutation” (Chiba Prefecture, priority 2013, dated 2021)
